Reference: patent US8202527B2, “Method of combating turf pests with a combination of imidacloprid and bifenthrin” (priority 2005, dated 2012)

What was measured:
[1] = test system: southern chinch bugs (pyrethroid-resistant chinch bugs); experiment: Florida Study (a): St. Augustine grass lawns, chinch bug counts; format: in vivo, Blissus hirsutus; settings: for number of southern chinch bugs per ft^2 (per 930 cm^2): bifenthrin 0.2 lb/A, imidacloprid 0.25 lb/A where applied
Experimental: (§1) The following tests were performed to show the efficacy of combinations containing imidacloprid and bifenthrin against pyrethroid-resistant chinch bugs (Blissus hirsutus).
St. Augustine grass lawns, were treated in the summer of 2005 with either bifenthrin at 0.2 lb/A (220 g/ha) or with one of two combination products containing imidacloprid at 0.25 lb/A (280 g/ha) plus bifenthrin at 0.2 lb/A (220 g/ha). At the time of application, populations of chinch bugs were very low. The grass was irrigated and mowed according to local agronomic practices. Because of poor efficacy, imidacloprid is not used commercially for this application and thus was not tested alone in this study.
The numbers of chinch bugs in the lawns were counted at 40 days after application (DAT). After this time period, lawns treated with the combination products containing imidacloprid and bifenthrin had no chinch bugs.

[2] = test system: pyrethroid-resistant chinch bugs (southern chinch bugs); experiment: Florida Study (b): seven St. Augustine grass lawns, chinch bug counts; format: in vivo, Blissus hirsutus
Experimental: as §1
(§2) Seven St. Augustine grass lawns were treated several times in the summer of 2005 with bifenthrin at 0.2 lb/A (220 g/ha), the highest registered dose of the most widely-used product used for control of southern chinch bugs in Florida.
In October of 2005 the lawns were sampled, and the average population of chinch bugs in each lawn was 571 bugs/ft^2 (i.e., 571 bugs per about 930 cm^2), an exceedingly heavy population. After this sampling was done, the seven lawns were treated with a soluble concentrate formulation of a product containing imidacloprid plus bifenthrin at 0.25 lb/A plus 0.2 lb/A (280 g/ha plus 220 g/ha). Six days after treatment, the lawns were again sampled, at which time an average of 6 chinch bugs/ft^2 (i.e., 6 bugs per about 930 cm^2) was observed.

[3] = test system: chinch bugs collected from Florida Study (b) lawns; experiment: University of Florida laboratory bioassay of bifenthrin susceptibility; format: in vivo, Blissus hirsutus; settings: bugs sampled from the treated lawns
Experimental: as §2

[4] = test system: Japanese beetle (Popillia japonica); experiment: Japanese beetle choice test on treated and untreated turfgrass cores; format: in vivo; settings: 4 days after infestation
Experimental: The following tests were performed to show the efficacy of combinations containing imidacloprid and bifenthrin against Japanese beetle eggs (Popillia japonica).
Turfgrass cores (6.4 cm in diameter, 7 cm deep) were set into tight-fitting paper cups. Four cores were arranged in an ABAB layout in cylindrical plastic cages (60 cm in diameter, 50 cm high) cages with lids that prevented any insects inside from escaping. The cages were sufficiently large to allow adult Japanese beetles to fly and/or crawl unimpeded from one core to another, thereby providing an experimental design that was an accurate measure of which type of turf (untreated or insecticide treated) the adult beetles preferred.
Tests were carried out using the following compositions compared to untreated controls: • Composition (1): Imidacloprid at 0.25 lb/A (about 280 g/ha) plus bifenthrin at 0.2 lb/A (about 220 g/ha) • Composition (2): Imidacloprid at 0.3 lb/A (about 340 g/ha)
Eight replicates of each paired comparison were tested. Gravid adult female Japanese beetles were collected from the field and eight females were placed in each cage. Tests were carried out at 25° C. and with 14 h photophase. One day after infestation, a piece of apple was added to the cage as a food/water source.
At 4 days after infestation, the numbers of adult beetles found in treated and untreated cores were counted. […]

SMILES | number of southern chinch bugs per ft^2 (per 930 cm^2) ([1]; 0 DAT) | number of southern chinch bugs per ft^2 (per 930 cm^2) ([1]; 40 DAT) | chinch bugs in the lawns (in words) ([1]; 40 days after application (DAT)) | control of southern chinch bugs (in words) ([1]; overall conclusion from the table data) | average population of chinch bugs in each lawn ([2]; October 2005, after several bifenthrin treatments at 0.2 lb/A, before the combination treatment) [bugs/ft^2] | control of southern chinch bugs (in words) ([2]; lawns treated several times in summer 2005 at 0.2 lb/A (220 g/ha)) | times less susceptible than a normal pyrethroid-susceptible population [3] [times] | number of adult beetles found in treated cores ([4]; choice against untreated cores, imidacloprid 0.25 lb/A plus bifenthrin 0.2 lb/A, or imidacloprid alone 0.3 lb/A, 25° C.) [beetles] | beetle preference between treated and untreated turf (in words) ([4]; paired choice comparison)
Cc1c(COC(=O)[C@@H]2[C@H](/C=C(\Cl)C(F)(F)F)C2(C)C)cccc1-c1ccccc1 (racemic) [Bifenthrin, 2-methylbiphenyl-3-ylmethyl (Z)-(1RS,3RS)-3-(2-chloro-3,3,3-trifluoroprop-1-enyl)-2,2-dimethylcyclopropane-carboxylate] | 0 per ft^2 (per 930 cm^2) | 250 per ft^2 (per 930 cm^2) | economically damaging levels | not effective | 571 | exceedingly poor | 47 |  | 
O=[N+]([O-])NC1=NCCN1Cc1ccc(Cl)nc1 [Imidacloprid] |  |  |  |  |  |  |  | 3.8 | the beetles show preference
